{"source": "patent US8758816B2", "about": "“Compositions comprising azelastine and methods of use thereof” (priority 2004, dated 2014)", "key": {"[1]": {"tested_on": "patients with seasonal allergic rhinitis (SAR)", "assay": "MP 428 study: Adult Rhinoconjunctivitis Quality of Life Questionnaire outcomes, change from baseline", "assay_type": "in vivo, human", "conditions": "Day 14/ET; Intent-to-Treat Population"}, "[2]": {"conditions": "human, in vivo; cited from earlier work"}, "[3]": {"assay": "Leaching of azelastine into the polymer of unit dose containers", "assay_type": "physicochemical"}, "[4]": {"tested_on": "patients with seasonal allergic rhinitis (SAR)", "conditions": "in vivo"}}, "note": "Structures can show the parent of a compound that is named as a salt."}
{"smiles": "CN1CCCC(n2nc(Cc3ccc(Cl)cc3)c3ccccc3c2=O)CC1", "note": "(racemic) [Azelastine, (±)-1-(2H)-phthalazinone, 4-[(4-chlorophenyl)methyl]-2-(hexahydro-1-methyl-1H-azepin-4-yl)-, mono-hydrochloride]", "values": [{"measurement": "RQLQ Change From Baseline in Activity, LS Mean", "setting": "[1]", "value": "−1.37"}, {"measurement": "RQLQ Change From Baseline in Activity, Mean", "setting": "[1]", "value": "−1.25"}, {"measurement": "RQLQ Change From Baseline in Activity, Median", "setting": "[1]", "value": "−1.00"}, {"measurement": "RQLQ Change From Baseline in Emotional, LS Mean", "setting": "[1]", "value": "−1.26"}, {"measurement": "RQLQ Change From Baseline in Emotional, Mean", "setting": "[1]", "value": "−1.13"}, {"measurement": "RQLQ Change From Baseline in Emotional, Median", "setting": "[1]", "value": "−1.00"}, {"measurement": "RQLQ Change From Baseline in Eye Symptoms, LS Mean", "setting": "[1]", "value": "−1.64"}, {"measurement": "RQLQ Change From Baseline in Eye Symptoms, Mean", "setting": "[1]", "value": "−1.49"}, {"measurement": "RQLQ Change From Baseline in Eye Symptoms, Median", "setting": "[1]", "value": "−1.25"}, {"measurement": "RQLQ Change From Baseline in Nasal Symptoms, LS Mean", "setting": "[1]", "value": "−1.46"}, {"measurement": "RQLQ Change From Baseline in Nasal Symptoms, Mean", "setting": "[1]", "value": "−1.31"}, {"measurement": "RQLQ Change From Baseline in Nasal Symptoms, Median", "setting": "[1]", "value": "−1.25"}, {"measurement": "RQLQ Change From Baseline in Non-nose/eye Symptoms, LS Mean", "setting": "[1]", "value": "−0.88"}, {"measurement": "RQLQ Change From Baseline in Non-nose/eye Symptoms, Mean", "setting": "[1]", "value": "−0.82"}, {"measurement": "RQLQ Change From Baseline in Non-nose/eye Symptoms, Median", "setting": "[1]", "value": "−0.86"}, {"measurement": "RQLQ Change From Baseline in Overall Score, LS Mean", "setting": "[1]", "value": "−1.21"}, {"measurement": "RQLQ Change From Baseline in Overall Score, Mean", "setting": "[1]", "value": "−1.11"}, {"measurement": "RQLQ Change From Baseline in Overall Score, Median", "setting": "[1]", "value": "−1.13"}, {"measurement": "RQLQ Change From Baseline in Practical Problems, LS Mean", "setting": "[1]", "value": "−1.59"}, {"measurement": "RQLQ Change From Baseline in Practical Problems, Mean", "setting": "[1]", "value": "−1.50"}, {"measurement": "RQLQ Change From Baseline in Practical Problems, Median", "setting": "[1]", "value": "−1.33"}, {"measurement": "RQLQ Change From Baseline in Sleep, LS Mean", "setting": "[1]", "value": "−1.23"}, {"measurement": "RQLQ Change From Baseline in Sleep, Mean", "setting": "[1]", "value": "−1.02"}, {"measurement": "RQLQ Change From Baseline in Sleep, Median", "setting": "[1]", "value": "−1.00"}, {"measurement": "bitter taste adverse event", "setting": "[2]", "value": 19.7, "unit": "%"}, {"measurement": "leaching into the container material", "setting": "[3]; HDPE unit dose containers, in contrast to lower-density PE", "value": "reduce, substantially reduce, or eliminate leaching"}, {"measurement": "leachability into the container material", "setting": "[3]; containers of polymers other than HDPE, including polyethylenes of lower density", "value": "high degree of undesirable leachability"}, {"measurement": "Body Weight for Patients of Age 12 to 17, Actual, Mean", "setting": "[4]", "value": 104.7, "unit": "lb"}, {"measurement": "Body Weight for Patients of Age 12 to 17, Actual, Median", "setting": "[4]", "value": 104.0, "unit": "lb"}, {"measurement": "Body Weight for Patients of Age 12 to 17, Actual, Min-Max", "setting": "[4]", "value": "98-112 lb"}, {"measurement": "Body Weight for Patients of Age 18 and Beyond, Actual, Mean", "setting": "[4]", "value": 186.2, "unit": "lb"}, {"measurement": "Body Weight for Patients of Age 18 and Beyond, Actual, Median", "setting": "[4]", "value": 177.8, "unit": "lb"}, {"measurement": "Body Weight for Patients of Age 18 and Beyond, Actual, Min-Max", "setting": "[4]", "value": "102-284 lb"}, {"measurement": "Body Weight, Actual, Mean", "setting": "[4]", "value": 181.2, "unit": "lb"}, {"measurement": "Body Weight, Actual, Median", "setting": "[4]", "value": 174.0, "unit": "lb"}, {"measurement": "Body Weight, Actual, Min-Max", "setting": "[4]", "value": "98-284 lb"}, {"measurement": "Respiration, Actual, Median", "setting": "[4]", "value": 16.0, "unit": "bpm"}, {"measurement": "Respiration, Change from baseline, Median", "setting": "[4]", "value": 0.0, "unit": "bpm"}, {"measurement": "Respiration, Change from baseline, Min-Max", "setting": "[4]", "value": "−4-4 bpm"}]}
